Data taken from patent US20130039956A1, “USE OF NITROCARBOXYLIC ACIDS FOR THE TREATMENT, DIAGNOSIS AND PROPHYLAXIS OF AGGRESSIVE HEALING PATTERNS” (priority 2010, published 2013).

Columns and labels:
fibroblasts = assay: Biofouling and cell adherence at prosthetic materials (dip-coated polymer films); assay type: cell-based; conditions: compared with native FA (control)
Experimental: Polymer scaffolds (polyurethane, polyvinylchloride, polylactate) which are used as implant materials were investigated. Solid and porous (pore sizes ranging from 50 to 150 micrometer) films of pure polymer scaffolds were cut into pieces (5×5 mm). After cleaning with NaOH and ethanol, they were dip-coated with native and nitrocarboxylic acids. Dip-coated pieces were suspended in a tube filled with argon and heated at 60° C. for 24 hours in the dark. Film pieces with and without coating were placed in a borosilicate glass tube that allowed fixation of two margins of the film pieces at the wall of the glass tube, thus, enabling a upright standing position in the center of the tube. Tubes were filled with various solutions for 12 hours. Solutions consisted of the following: 0.9% saline; 2% bovine albumin; 2% bovine albumin with addition of either fibronectin or laminin; and bovine serum. At the end of the exposure time, tubes were gently washed twice with 0.9% saline solution. One set of films was analyzed for protein absorption using a specific antibody staining method. An identically prepared set of films was further processed for cell cultures. A suspension containing preincubated fibroblasts in 1% FCS was added to the film-containing tubes. The tubes were tilted and adjusted in such a position so that the films were in a vertical orientation within the suspension. […] Tubes had two openings at the upper half (of the tilt tubes) that allowed free exchange of the atmosphere above the solution with the surrounding atmosphere. Sets were incubated at standard conditions for 24, 48, and 96 hours, respectively. Thereafter, films were carefully removed and rinsed with 0.9% saline solution. The cellularity and the shape of the cells on both sides of the films were evaluated after staining (Gimsa) using a reflected light microscope.

[1] = test system: human umbellical endothelial cells (HUVEC); assay: Adhesion, propagation and growth of endothelial cells on coated polystyrene films; assay type: cell-based; conditions: days 3, 7, 14, compared with native FA
Experimental: Polystyrene scaffolds were prepared and pretreated in the same manner as performed in example 1 by using the same nitrocarboxylic acids as listed in table 1. The film samples were placed in a culture dish containing a gel matrix, in which human umbellical endothelial cells (HUVEC) had been allowed to grow to confluence. The culture medium consisted of 5% FCS, which was replaced every 5 days. Cultivation was performed according to standard conditions. Films were evaluated at days 3, 7, and 14 after careful extraction from the culture dishes, rinsing with saline solution, and staining with methylene blue. Using a reflected light microscope, the films were immediately examined to evaluate the following: Propagation of cells to the film center, cell confluidity, multilayer formation, and cell shape.

adult rats = assay: Fibrogenesis after traumatic and thermal tissue damage in dermal wound healing in vivo; design: species or system rat; conditions: 100 micromol ethanolic solution on wound margins, 8 weeks, compared with native FA
Source text: In order to determine the effects of nitrated fatty acids on fibrogenesis in response to traumatic and thermal tissue damage, an in vivo rat model was investigated. Paravertebral scalpel incision (two on each side) of approximately 1 cm in length and a depth of 1 mm were made in 12 anesthetized adult rats (150-200 g) of either sex after disinfection. Bleeding was stopped by manual compression. The entire length of the wound margins of one incision at each side were additionally cauterized using a 3-mm ball electrode connected to a DRE ASG-120 electrosurgical generator. Wound margins of one side were then covered with a sterile ethanolic 0.9% saline solution, or with a sterile ethanolic solution of the fatty acids (100 micromol), or with a sterile ethanolic solution of the nitrated fatty acids (100 micromol) using a sterile brush. A 1×10 mm cotton string that was bathed in the ethanolic solution containing 0.9% saline, native fatty acid or nitrated fatty acids was placed upon the incision site that had been closed by manual adaptation. The adaptation result and the cotton strings were fixed by an adhesive film. The animals were housed and fed according to institutional standards. The wound films were carefully removed after 2 weeks. Animals were euthanized after 8 weeks. The skin wounds were harvested, including the epidermis, dermis, and subcutaneous loose tissue with the surrounding normal tissue. The removed tissues were fixed in formalin and then embedded in paraffin. The cutting plane was vertical to the longitudinal axis of the former incisions. Slices (4-6 μm) were stained with H&E and Masson trichrome staining to evaluate the amount and density of collagen.

[2] = test system: Human peripheral blood mononuclear cells (PBMCs); assay: Adhesion of serum proteins and monocyte activation induced by coated silicone; assay type: cell-based; conditions: dip-coated silicone, PBMCs 3 days; compared with native FA
Experimental: In order to determine the effect of coating implant materials with nitro fatty acids to reduce adsorption of adhesion molecules and monocyte activation, sterile silicone sheets were out in small pieces and coated with respective nirocarboxylic acid and the corresponding native fatty acids by dip coating. Uncoated silicone pieces served as controls. For each fatty acid two sets of silicone pieces were bathed in freshly drawn human serum for 1 hour at 37° C., and another two sets were bathed in saline solutions. One set of both coated and uncoated pieces was analyzed immediately for adhesion proteins and the other set was placed in 96-well plates after rinsing the silicone pieces. Human peripheral blood mononuclear cells (PBMCs), isolated from three healthy subjects, were added to each well. Wells were incubated for 3 days under standard conditions. Culture supernatants were assayed for IL-1beta, IL-6, IL-8, and chemoattractant protein 1 (MCP-1) levels at the start and end of experiments.
Before analyzing the silicone pieces for protein adsorption, they were bathed in saline for 5 minutes. Thereafter, one side was rinsed with saline as performed for both sides in the set used for culturing. There was marked adsorption of fibrinogen and […] C5b-9 on the uncoated silicone. […] No protein was found on the surface of the nitro fatty acid-coated sample that was rinsed, thus, indicating the weak adherence of serum proteins.

human dermal fibroblasts = assay: Extra cellular matrix production (collagen-1) in response to TGF-β2 in dermal fibroblasts; assay type: cell-based; conditions: 10 and 50 μmol, TGF-β2 25 ng/ml, 48 hours; compared with native FA
Experimental: In order to determine whether PPRA gamma stimulation due to nitrated fatty acids plays a role in the inventive inhibition of an aggressive healing pattern to an irritating stimulus, human dermal fibroblasts were investigated. A dominant-negative PPAR gamma mutant (L466A) cell clone was generated by polymerase chain reaction-based site-directed mutagenesis. Presence of PPAR gamma or absence was investigated using a PPAR gamma antibody reaction which was determined using an enhanced chemiluminescence detection system. Furthermore, one cell series was incubated with a selective irreversible PPAR gamma ligand (GW9662, 1 μmol), which effectively blocks PPAR gamma receptors.
Sequential cultivation of human dermal fibroblasts was performed in EMEM containing 5 mM glucose supplemented with 10% FCS under standard cultivation conditions. Cells were allowed to grow to confluence in a 96-well plate. Wild-type fibroblasts and PPAR gamma deficient fibroblasts were investigated by a set-up of 2×10 sample sets comprising: (1) blank control; (2) stimulation control; (3) preincubation with the PPAR gamma antagonist GW9662 (Cayman Chemical); (4) preincubation with the PPAR agonist troglitazone (25 μmol). In 2×4 sample sets, native fatty acids were added to the medium to achieve a final concentration of 10 and 50 μmol, respectively; in another 2×4 sets the nitrated fatty acids were added to the medium in the same concentration, while 2×2 sets served as controls. In 10 of the sets, TGF-β2 was added to the culture medium at a concentration of 25 ng/ml. Cultivation was continued for 48 hours and then processed in order to analyze collagen-1 as measured by enhanced chemiluminescence detection of immuncomplexes.
Note: key: 0: not superior to native FA (control); +: Superior to native FA; ++: superior to both; +++: outstanding effect.

In the case of “5-nitro-eicosatrienoic acid [compound 4]”, the “Relative differences: effect on biofouling and cell adherence” value (fibroblasts) is reported as “+”, the “Relative differences: effect on adhesion, propagation and growth of endothelial cells” value (“Relative differences: effect on adhesion” for short) [1] is reported as “+” and the “Relative effect on fibrogenesis (scar formation) in dermal wound healing” value (shortened to “Relative effect on fibrogenesis”) (adult rats) is reported as “+”. For the same compound, the “Relative effect on serum protein adhesion and monocyte activation” value [2] was “+” and the “Relative effect on collagen-1 production in response to TGF-β2” value (shortened to “Relative effect on collagen-1 production”) (human dermal fibroblasts) was “+”.
For 9,10-nitro-cis-oleic acid [compound 10], the “Relative differences: effect on biofouling and cell adherence” value (fibroblasts) was “+++”, the “Relative differences: effect on adhesion” value [1] was “++” and the “Relative effect on fibrogenesis” value (adult rats) was “++”. For the same compound, the “Relative effect on serum protein adhesion and monocyte activation” value [2] was “++” and the “Relative effect on collagen-1 production” value (human dermal fibroblasts) was “++”.
In the case of “9,10-nitro-trans-oleic acid [compound 15]”, the “Relative differences: effect on biofouling and cell adherence” value (fibroblasts) is reported as “++”, the “Relative differences: effect on adhesion” value [1] is reported as “+” and the “Relative effect on fibrogenesis” value (adult rats) is reported as “+”. For the same compound, the “Relative effect on serum protein adhesion and monocyte activation” value [2] was “+” and the “Relative effect on collagen-1 production” value (human dermal fibroblasts) was “+”.
`CCCCCCCC/C=C(/CCCCCCCC(=O)O)[N+](=O)[O-]` [compound 1, 9-nitro cis-oleic acid] was tested, and the “Relative differences: effect on biofouling and cell adherence” value (fibroblasts) was “++”, the “Relative differences: effect on adhesion” value [1] was “++” and the “Relative effect on fibrogenesis” value (adult rats) was “++”. For the same compound, the “Relative effect on serum protein adhesion and monocyte activation” value [2] was “+++” and the “Relative effect on collagen-1 production” value (human dermal fibroblasts) was “+++”.
`CCCCC/C=C\C/C(=C\CCCCCCCC(=O)O)[N+](=O)[O-]` [compound 2, 10-nitro-cis-linoleic acid] was tested, and the “Relative differences: effect on biofouling and cell adherence” value (fibroblasts) was “++”, the “Relative differences: effect on adhesion” value [1] was “+++” and the “Relative effect on fibrogenesis” value (adult rats) was “+++”. For the same compound, the “Relative effect on serum protein adhesion and monocyte activation” value [2] was “++” and the “Relative effect on collagen-1 production” value (human dermal fibroblasts) was “++”.
For `CCCCCCCC/C(=C/CCCCCCCC(=O)O)[N+](=O)[O-]` [compound 3, 10-nitro-cis-oleic acid], the “Relative differences: effect on biofouling and cell adherence” value (fibroblasts) was “++”, the “Relative differences: effect on adhesion” value [1] was “++” and the “Relative effect on fibrogenesis” value (adult rats) was “++”. For the same compound, the “Relative effect on serum protein adhesion and monocyte activation” value [2] was “++” and the “Relative effect on collagen-1 production” value (human dermal fibroblasts) was “++”.
In the case of `CCCCC/C=C(/C/C=C\C/C=C\C/C=C\C/C=C\CCC(=O)O)[N+](=O)[O-]` [compound 5, 16-nitro-all-cis-4,7,10,13,16-docosapentaenoic acid], the “Relative differences: effect on biofouling and cell adherence” value (fibroblasts) is reported as “++”, the “Relative differences: effect on adhesion” value [1] is reported as “++” and the “Relative effect on fibrogenesis” value (adult rats) is reported as 0. The “Relative effect on serum protein adhesion and monocyte activation” value [2] was “+” and the “Relative effect on collagen-1 production” value (human dermal fibroblasts) was “+”.
For `CC/C=C\C/C=C\C/C=C(/CCCCCCCC(=O)O)[N+](=O)[O-]` [compound 6, 9-nitro-all-cis-9-12,15-octadecatrienoic acid], the “Relative differences: effect on biofouling and cell adherence” value (fibroblasts) was “++”, the “Relative differences: effect on adhesion” value [1] was “++” and the “Relative effect on fibrogenesis” value (adult rats) was “++”. For the same compound, the “Relative effect on serum protein adhesion and monocyte activation” value [2] was “+” and the “Relative effect on collagen-1 production” value (human dermal fibroblasts) was “++”.
In the case of `CC/C=C\C/C=C\C/C(=C/C/C=C\C/C=C\CCCCCC(=O)O)[N+](=O)[O-]` [compound 7, 14-nitro-all-cis-7,10,13,16,19-docosapentaenoic acid], the “Relative differences: effect on biofouling and cell adherence” value (fibroblasts) is reported as “++”, the “Relative differences: effect on adhesion” value [1] is reported as “+” and the “Relative effect on fibrogenesis” value (adult rats) is reported as 0. The “Relative effect on serum protein adhesion and monocyte activation” value [2] was 0 and the “Relative effect on collagen-1 production” value (human dermal fibroblasts) was “+”.
With `CCCCCCCC/C=C(/CCCCCCCCCCCCCC(=O)O)[N+](=O)[O-]` [compound 8, 15-nitro-cis-15-tetracosenoic acid] the “Relative differences: effect on biofouling and cell adherence” value (fibroblasts) was “+”, the “Relative differences: effect on adhesion” value [1] was “+” and the “Relative effect on fibrogenesis” value (adult rats) was “+”. For the same compound, the “Relative effect on serum protein adhesion and monocyte activation” value [2] was “+” and the “Relative effect on collagen-1 production” value (human dermal fibroblasts) was 0.
`CCCCCCCC/C=C(\CCCCCCCC(=O)O)[N+](=O)[O-]` [compound 9, 9-nitro-trans-oleic acid] was tested, and the “Relative differences: effect on biofouling and cell adherence” value (fibroblasts) was “+”, the “Relative differences: effect on adhesion” value [1] was “+” and the “Relative effect on fibrogenesis” value (adult rats) was “+”. For the same compound, the “Relative effect on serum protein adhesion and monocyte activation” value [2] was “+” and the “Relative effect on collagen-1 production” value (human dermal fibroblasts) was “+”.
With `CCCCC=C(C=CC=CCCCCCCCC(=O)O)[N+](=O)[O-]` [compound 11, 13-nitro-octadeca-9,11,13-trienoic acid] the “Relative differences: effect on biofouling and cell adherence” value (fibroblasts) was “+”, the “Relative differences: effect on adhesion” value [1] was “+” and the “Relative effect on fibrogenesis” value (adult rats) was “+”. The “Relative effect on serum protein adhesion and monocyte activation” value [2] was “+” and the “Relative effect on collagen-1 production” value (human dermal fibroblasts) was “+”.
With `CCCCCCCC/C(=C\CCCCCCCC(=O)O)[N+](=O)[O-]` [compound 12, 10-nitro-trans-oleic acid] the “Relative differences: effect on biofouling and cell adherence” value (fibroblasts) was “+”, the “Relative differences: effect on adhesion” value [1] was “+” and the “Relative effect on fibrogenesis” value (adult rats) was 0. For the same compound, the “Relative effect on serum protein adhesion and monocyte activation” value [2] was 0 and the “Relative effect on collagen-1 production” value (human dermal fibroblasts) was “+”.
In the case of `CCCCCC/C=C(/CCCCCCCC(=O)O)[N+](=O)[O-]` [compound 13], the “Relative differences: effect on biofouling and cell adherence” value (fibroblasts) is reported as “+”, the “Relative differences: effect on adhesion” value [1] is reported as “++” and the “Relative effect on fibrogenesis” value (adult rats) is reported as “+”. The “Relative effect on serum protein adhesion and monocyte activation” value [2] was “+” and the “Relative effect on collagen-1 production” value (human dermal fibroblasts) was “+”.
For `CCCCCCCCCCC/C=C(/CCCCC(=O)O)[N+](=O)[O-]` [compound 21, 6-nitro-cis-6-octadecenoic acid], the “Relative differences: effect on adhesion” value [1] was 0, the “Relative effect on fibrogenesis” value (adult rats) was “++” and the “Relative effect on serum protein adhesion and monocyte activation” value [2] was 0. The “Relative effect on collagen-1 production” value (human dermal fibroblasts) was “++”.
